Assay results from patent publication US12723063B2, “GIPR-agonist compounds” (Eli Lilly and Company, priority 2019, dated 2026).
*1 amine or outer side, *2 acyl side, *3 side chain or, on linkers, in order; H or OH if unused. Where a SMILES comes first, the peptide text is derived from it. Side-chain parts run from the residue outwards. [ ]: non-standard residue; d: D form. The star is where a group is joined. C20 diacid = O=C(O)CCCCCCCCCCCCCCCCCCC(=O)*; C18 diacid = O=C(O)CCCCCCCCCCCCCCCCC(=O)*; αMePhe(2-F) = C[C@](N)(Cc1ccccc1F)C(=O)O; γGlu = O=C(O)[C@H](CCC(=O)[*:2])N[*:1]; 4Pal = N[C@@H](Cc1ccncc1)C(=O)O; αMeL = CC(C)C[C@](C)(N)C(=O)O; Orn = NCCC[C@H](N)C(=O)O; AEEA = NCCOCCOCC(=O)O; Aib = CC(C)(N)C(=O)O

Tests used:
human GIPR = target: T1, human GIPR (Homo sapiens, UniProt P48546); assay: [125I]-GIP binding, SPA with WGA beads, 0.1% bacitracin; conditions: geometric mean, read-out: hGIPR Ki
T1 construct: expressed in transfected cells; crude membranes
T1 sequence (P48546 22-466): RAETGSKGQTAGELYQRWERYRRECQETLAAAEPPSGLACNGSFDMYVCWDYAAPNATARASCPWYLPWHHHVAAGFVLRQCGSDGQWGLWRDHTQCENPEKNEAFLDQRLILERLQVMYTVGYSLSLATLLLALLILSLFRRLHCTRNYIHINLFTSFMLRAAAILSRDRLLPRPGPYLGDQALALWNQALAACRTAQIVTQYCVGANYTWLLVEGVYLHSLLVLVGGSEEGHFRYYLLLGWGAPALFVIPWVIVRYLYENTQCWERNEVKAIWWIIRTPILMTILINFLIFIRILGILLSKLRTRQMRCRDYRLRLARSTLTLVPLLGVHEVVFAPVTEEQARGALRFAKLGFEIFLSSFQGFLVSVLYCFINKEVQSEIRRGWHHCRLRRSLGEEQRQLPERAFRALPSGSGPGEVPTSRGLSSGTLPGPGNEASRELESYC
Procedure, shortened: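 Ki values are geometric means (SEM, n independent days), derived from four-parameter nonlinear regression of IC50. Membranes came from hGIPR-expressing CHO cells.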

[1] = target: T2, human glucose-dependent insulinotropic peptide receptor (GIPR) (Homo sapiens, UniProt P48546); assay: cAMP functional assay (HTRF) in HEK293 cells in presence of 0.1% casein; assay type: cell-based; conditions: HEK293 cells expressing human GIPR, geometric mean, read-out: hGIPR cAMP Rel EC50 nM (SEM, n)
T2 construct: expressed in transfected cells; host or cells: HEK293
T2 sequence (P48546 22-466): T1 sequence (P48546 22-466)

Compound	Ki (human GIPR) [nM]	EC50 [1] [nM]
CC[C@H](C)[C@H](NC(=O)[C@H](CO)NC(=O)[C@H](Cc1ccc(O)cc1)NC(=O)[C@H](CC(=O)O)NC(=O)[C@H](CO)NC(=O)[C@@H](NC(=O)[C@](C)(Cc1ccccc1F)NC(=O)[C@@H](NC(=O)CNC(=O)[C@H](CCC(=O)O)NC(=O)C(C)(C)NC(=O)[C@@H](N)Cc1ccc(O)cc1)[C@@H](C)O)[C@@H](C)CC)C(=O)N[C@@H](C)C(=O)N[C@@H](CC(C)C)C(=O)N[C@@H](CC(=O)O)C(=O)N[C@@H](CCCCN)C(=O)N[C@H](C(=O)N[C@@H](Cc1c[nH]cn1)C(=O)N[C@@H](CCC(N)=O)C(=O)NC(C)(C)C(=O)N[C@@H](CCC(=O)O)C(=O)N[C@@H](Cc1ccccc1)C(=O)N[C@H](C(=O)N[C@@H](CC(N)=O)C(=O)N[C@@H](Cc1ccc(O)cc1)C(=O)N[C@@H](CCCCNC(=O)COCCOCCNC(=O)COCCOCCNC(=O)CC[C@H](NC(=O)CCCCCCCCCCCCCCCCCCC(=O)O)C(=O)O)C(=O)N[C@@H](CC(C)C)C(=O)N[C@@H](C)C(=O)NCC(=O)NCC(=O)N1CCC[C@H]1C(=O)N[C@@H](CO)C(=O)N[C@@H](CO)C(=O)NCC(=O)N[C@@H](C)C(=O)N1CCC[C@H]1C(=O)N1CCC[C@H]1C(=O)N1CCC[C@H]1C(=O)N[C@@H](CO)C(N)=O)C(C)C)[C@@H](C)CC [Example 98] (H-Y[Aib]EGT[αMePhe(2-F)]ISDYSIALDKIHQ[Aib]EFVNYK([AEEA-AEEA-γGlu-C20 diacid])LAGGPSSGAPPPS-NH2)	0.0195	0.00718
CC[C@H](C)[C@H](NC(=O)[C@H](CCCN)NC(=O)[C@H](CC(=O)O)NC(=O)[C@H](CC(C)C)NC(=O)[C@](C)(CC(C)C)NC(=O)[C@@H](NC(=O)[C@H](CO)NC(=O)[C@H](Cc1ccc(O)cc1)NC(=O)[C@H](CC(=O)O)NC(=O)[C@H](CO)NC(=O)[C@@H](NC(=O)[C@H](Cc1ccccc1)NC(=O)[C@@H](NC(=O)CNC(=O)[C@H](CCC(=O)O)NC(=O)C(C)(C)NC(=O)[C@@H](N)Cc1ccc(O)cc1)[C@@H](C)O)[C@@H](C)CC)[C@@H](C)CC)C(=O)N[C@@H](Cc1c[nH]cn1)C(=O)N[C@@H](CCC(N)=O)C(=O)NC(C)(C)C(=O)N[C@@H](CC(=O)O)C(=O)N[C@@H](Cc1ccccc1)C(=O)N[C@H](C(=O)N[C@@H](CCC(=O)O)C(=O)N[C@@H](Cc1ccncc1)C(=O)N[C@@H](CCCCNC(=O)COCCOCCNC(=O)COCCOCCNC(=O)CC[C@H](NC(=O)CCCCCCCCCCCCCCCCC(=O)O)C(=O)O)C(=O)N[C@@H](CC(C)C)C(=O)N[C@@H](CCC(=O)O)C(=O)NCC(=O)NCC(=O)N1CCC[C@H]1C(=O)N[C@@H](CO)C(=O)N[C@@H](CO)C(=O)NCC(=O)N[C@@H](C)C(=O)N1CCC[C@H]1C(=O)N1CCC[C@H]1C(=O)N1CCC[C@H]1C(=O)N[C@@H](CO)C(N)=O)C(C)C [Example 111] (H-Y[Aib]EGTFISDYSI[αMeL]LD[Orn]IHQ[Aib]DFVE[4Pal]K([AEEA-AEEA-γGlu-C18 diacid])LEGGPSSGAPPPS-NH2)	0.0871	0.0065
CC[C@H](C)[C@H](NC(=O)[C@H](CO)NC(=O)[C@H](Cc1ccc(O)cc1)NC(=O)[C@H](CC(=O)O)NC(=O)[C@H](CO)NC(=O)[C@@H](NC(=O)[C@H](Cc1ccccc1)NC(=O)[C@@H](NC(=O)CNC(=O)[C@H](CCC(=O)O)NC(=O)C(C)(C)NC(=O)[C@@H](N)Cc1ccc(O)cc1)[C@@H](C)O)[C@@H](C)CC)C(=O)N[C@@H](C)C(=O)N[C@@H](CC(C)C)C(=O)N[C@@H](CC(=O)O)C(=O)N[C@@H](CCCCN)C(=O)N[C@H](C(=O)N[C@@H](Cc1c[nH]cn1)C(=O)N[C@@H](CCC(N)=O)C(=O)NC(C)(C)C(=O)N[C@@H](CCC(=O)O)C(=O)N[C@@H](Cc1ccccc1)C(=O)N[C@H](C(=O)N[C@@H](CC(N)=O)C(=O)N[C@@H](Cc1ccc(O)cc1)C(=O)N[C@@H](CCCCNC(=O)COCCOCCNC(=O)COCCOCCNC(=O)CC[C@H](NC(=O)CCCCCCCCCCCCCCCCCCC(=O)O)C(=O)O)C(=O)N[C@@H](CC(C)C)C(=O)N[C@@H](C)C(=O)NCC(=O)NCC(=O)N1CCC[C@H]1C(=O)N[C@@H](CO)C(=O)N[C@@H](CO)C(=O)NCC(=O)N[C@@H](C)C(=O)N1CCC[C@H]1C(=O)N1CCC[C@H]1C(=O)N1CCC[C@H]1C(=O)N[C@@H](CO)C(N)=O)C(C)C)[C@@H](C)CC [Example 96] (H-Y[Aib]EGTFISDYSIALDKIHQ[Aib]EFVNYK([AEEA-AEEA-γGlu-C20 diacid])LAGGPSSGAPPPS-NH2)	0.232	0.0251
CC[C@H](C)[C@H](NC(=O)[C@H](CO)NC(=O)[C@H](Cc1ccc(O)cc1)NC(=O)[C@H](CC(=O)O)NC(=O)[C@H](CO)NC(=O)[C@@H](NC(=O)[C@H](Cc1ccccc1)NC(=O)[C@@H](NC(=O)CNC(=O)[C@H](CCC(=O)O)NC(=O)[C@@H](C)NC(=O)[C@@H](N)Cc1ccc(O)cc1)[C@@H](C)O)[C@@H](C)CC)C(=O)N[C@@H](CC(C)C)C(=O)N[C@@H](CC(C)C)C(=O)N[C@@H](CC(=O)O)C(=O)N[C@@H](CCCCN)C(=O)N[C@@H](CCCCNC(=O)COCCOCCNC(=O)COCCOCCNC(=O)CC[C@H](NC(=O)CCCCCCCCCCCCCCCCCCC(=O)O)C(=O)O)C(=O)N[C@@H](Cc1c[nH]cn1)C(=O)N[C@@H](CCC(N)=O)C(=O)N[C@@H](CCC(N)=O)C(=O)N[C@@H](CC(=O)O)C(=O)N[C@@H](Cc1ccccc1)C(=O)N[C@H](C(=O)N[C@@H](CC(N)=O)C(=O)N[C@@H](Cc1ccc(O)cc1)C(=O)N[C@@H](CC(C)C)C(=O)N[C@@H](CC(C)C)C(=O)N[C@@H](C)C(=O)N[C@@H](CCC(N)=O)C(=O)NCC(=O)N1CCC[C@H]1C(=O)N[C@@H](CO)C(=O)N[C@@H](CO)C(=O)NCC(=O)N[C@@H](C)C(=O)N1CCC[C@H]1C(=O)N1CCC[C@H]1C(=O)N1CCC[C@H]1C(=O)N[C@@H](CO)C(N)=O)C(C)C [Example 15] (H-Y[dA]EGTFISDYSILLDKK([AEEA-AEEA-γGlu-C20 diacid])HQQDFVNYLLAQGPSSGAPPPS-NH2)	0.471	0.282
CC[C@H](C)[C@H](NC(=O)[C@H](CO)NC(=O)[C@H](Cc1ccc(O)cc1)NC(=O)[C@H](CC(=O)O)NC(=O)[C@H](CO)NC(=O)[C@@H](NC(=O)[C@H](Cc1ccccc1)NC(=O)[C@@H](NC(=O)CNC(=O)[C@H](CCC(=O)O)NC(=O)[C@@H](C)NC(=O)[C@@H](N)Cc1ccc(O)cc1)[C@@H](C)O)[C@@H](C)CC)C(=O)N[C@@H](CC(C)C)C(=O)N[C@@H](CC(C)C)C(=O)N[C@@H](CC(=O)O)C(=O)N[C@@H](CCCCN)C(=O)N[C@@H](CCCCNC(=O)COCCOCCNC(=O)COCCOCCNC(=O)CC[C@H](NC(=O)CCCCCCCCCCCCCCCCCCC(=O)O)C(=O)O)C(=O)N[C@@H](C)C(=O)N[C@@H](CCC(N)=O)C(=O)N[C@@H](CCC(N)=O)C(=O)N[C@@H](CC(=O)O)C(=O)N[C@@H](Cc1ccccc1)C(=O)N[C@H](C(=O)N[C@@H](CC(N)=O)C(=O)N[C@@H](Cc1c[nH]c2ccccc12)C(=O)N[C@@H](CC(C)C)C(=O)N[C@@H](CC(C)C)C(=O)N[C@@H](C)C(=O)N[C@@H](CCC(N)=O)C(=O)NCC(=O)N1CCC[C@H]1C(=O)N[C@@H](CO)C(=O)N[C@@H](CO)C(=O)NCC(=O)N[C@@H](C)C(=O)N1CCC[C@H]1C(=O)N1CCC[C@H]1C(=O)N1CCC[C@H]1C(=O)N[C@@H](CO)C(N)=O)C(C)C [Example 11] (H-Y[dA]EGTFISDYSILLDKK([AEEA-AEEA-γGlu-C20 diacid])AQQDFVNWLLAQGPSSGAPPPS-NH2)	0.0584	0.0738
CC[C@H](C)[C@H](NC(=O)[C@H](CCCCN)NC(=O)[C@H](CC(=O)O)NC(=O)[C@H](CC(C)C)NC(=O)[C@](C)(CC(C)C)NC(=O)[C@@H](NC(=O)[C@H](CO)NC(=O)[C@H](Cc1ccc(O)cc1)NC(=O)[C@H](CC(=O)O)NC(=O)[C@H](CO)NC(=O)[C@@H](NC(=O)[C@H](Cc1ccccc1)NC(=O)[C@@H](NC(=O)CNC(=O)[C@H](CCC(=O)O)NC(=O)C(C)(C)NC(=O)[C@@H](N)Cc1ccc(O)cc1)[C@@H](C)O)[C@@H](C)CC)[C@@H](C)CC)C(=O)N[C@@H](Cc1c[nH]cn1)C(=O)N[C@@H](CCC(N)=O)C(=O)NC(C)(C)C(=O)N[C@@H](CC(=O)O)C(=O)N[C@@H](Cc1ccccc1)C(=O)N[C@H](C(=O)N[C@@H](CCC(=O)O)C(=O)N[C@@H](Cc1ccncc1)C(=O)N[C@@H](CCCCNC(=O)COCCOCCNC(=O)COCCOCCNC(=O)CC[C@H](NC(=O)CCCCCCCCCCCCCCCCC(=O)O)C(=O)O)C(=O)N[C@@H](CC(C)C)C(=O)N[C@@H](CCC(=O)O)C(=O)NCC(=O)NCC(=O)N1CCC[C@H]1C(=O)N[C@@H](CO)C(=O)N[C@@H](CO)C(=O)NCC(=O)N[C@@H](C)C(=O)N1CCC[C@H]1C(=O)N1CCC[C@H]1C(=O)N1CCC[C@H]1C(=O)N[C@@H](CO)C(N)=O)C(C)C [Example 110] (H-Y[Aib]EGTFISDYSI[αMeL]LDKIHQ[Aib]DFVE[4Pal]K([AEEA-AEEA-γGlu-C18 diacid])LEGGPSSGAPPPS-NH2)	0.339	0.0071
